Test results as given in US20210171589A1, “TRUNCATED CARTILAGE-HOMING PEPTIDES AND PEPTIDE COMPLEXES AND METHODS OF USE THEREOF” (BLAZE BIOSCIENCE, INC., priority 2018, published 2021).
Bridge positions count the residues as written; N and C are the ends. Peptide text beside a SMILES is read from it.

Legend:
porcine pepsin = porcine pepsin (Sus scrofa, UniProt P00791); assay: Peptide resistance to proteolytic digestion by pepsin; assay type: in vitro ADME; conditions: 50 U of porcine pepsin in simulated gastric fluid at pH 1.0, 30 minutes at 37° C.
porcine pepsin, sequence (P00791 60-385): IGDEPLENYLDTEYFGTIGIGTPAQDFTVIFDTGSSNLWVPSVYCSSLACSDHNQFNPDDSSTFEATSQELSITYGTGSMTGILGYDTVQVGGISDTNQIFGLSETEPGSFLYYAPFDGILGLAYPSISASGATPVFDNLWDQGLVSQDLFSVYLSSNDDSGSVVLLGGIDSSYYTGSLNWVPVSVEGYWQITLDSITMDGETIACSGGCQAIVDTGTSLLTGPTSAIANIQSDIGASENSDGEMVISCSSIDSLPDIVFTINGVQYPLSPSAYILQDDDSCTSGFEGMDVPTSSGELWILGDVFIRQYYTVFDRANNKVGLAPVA
Description: (§1) This example illustrates peptide stability under various stress conditions such as high temperature, low pH, reducing agents, and proteases. To determine resistance to high temperatures, cystine-dense peptides (CDPs) were incubated at 0.5 mM in PBS at 75° C. or 100° C. for 1 h and pelleted, and the supernatant was analyzed with reversed-phase chromatography (RPC). To determine resistance to proteolytic digestion, CDPs were mixed with 50 U of porcine pepsin, in simulated gastric fluid at pH 1.0, or 50 U of porcine trypsin in PBS, incubated for 30 minutes at 37° C. and analyzed with RPC. Oxidized and reduced forms (prepared through addition 10 mM DTT) were compared. Circular Dichroism spectroscopy was used in order to measure the secondary structure of peptides with a Jasco J-720W spectropolarimeter in a cell with a 1.0-mm path length, and CDPs were diluted into 20 mM phosphate buffer, pH 7.4, at a concentration of 15-25 μM. These conditions were expected to denature or degrade conventional globular proteins and many peptides. In TABLE 10, “high” resistance indicated a high amount of the peptide remained or was retained as unmodified under the given experimental conditions and “low” resistance indicated a low amount of the peptide remained or was retained unmodified under the given experimental conditions. […]

porcine trypsin = porcine trypsin (Sus scrofa, UniProt P00761); assay: Peptide resistance to proteolytic digestion by trypsin; assay type: in vitro ADME; conditions: 50 U of porcine trypsin in PBS, 30 minutes at 37° C.
porcine trypsin, sequence (P00761 9-231): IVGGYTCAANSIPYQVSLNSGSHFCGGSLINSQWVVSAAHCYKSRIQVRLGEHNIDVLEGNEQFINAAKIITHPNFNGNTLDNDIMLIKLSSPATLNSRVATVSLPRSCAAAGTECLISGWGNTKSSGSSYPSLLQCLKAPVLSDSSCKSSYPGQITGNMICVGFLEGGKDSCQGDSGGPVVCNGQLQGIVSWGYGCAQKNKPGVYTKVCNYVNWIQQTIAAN
Description: as §1

## CC[C@H](C)[C@@H]1NC(=O)[C@@H]2CSSC[C@H](NC(=O)[C@H](CCCCN)NC(=O)[C@@H](NC(=O)[C@H](CC(N)=O)NC(=O)[C@@H](NC(=O)[C@@H]3CCCN3C(=O)[C@@H](NC(=O)CNC(=O)[C@H](CO)NC(=O)CN)C(C)C)[C@@H](C)CC)C(C)C)C(=O)N[C@@H](CCCNC(=N)N)C(=O)NCC(=O)N[C@@H](CO)C(=O)N[C@@H](CCCNC(=N)N)C(=O)N[C@@H](CC(=O)O)C(=O)N[C@H]3CSSC[C@H](NC(=O)[C@H](CCCCN)NC(=O)[C@H](CO)NC(=O)[C@H](CC(N)=O)NC1=O)C(=O)N[C@@H](Cc1c[nH]cn1)C(=O)N[C@H](C(=O)N[C@H](C(=O)N1CCC[C@H]1C(=O)O)[C@@H](C)O)CSSC[C@H](NC(=O)[C@@H]1CCCN1C(=O)[C@H](CC(=O)O)NC(=O)[C@H](CC(C)C)NC3=O)C(=O)N[C@@H](CCCCN)C(=O)N[C@@H](CCCCN)C(=O)N[C@@H](C)C(=O)NCC(=O)N[C@@H](CCSC)C(=O)N[C@@H](CCCNC(=N)N)C(=O)N[C@@H](Cc1ccccc1)C(=O)NCC(=O)N[C@@H](CCCCN)C(=O)N2 [compound 150] (H-GSGVPINVKCRGSRDCLDPCKKAGMRFGKCINSKCHCTP-OH; disulfide 10-30, 16-35, 20-37; N-terminus and C-terminus assumed)
Porcine pepsin
  Resistance to Pepsin: High
Porcine trypsin
  Resistance to Trypsin: High
